Paper PMC8960621, “Solution speciation and human serum protein binding of indium(III) complexes of 8-hydroxyquinoline, deferiprone and maltol” (Journal of Biological Inorganic Chemistry, 2022)

What was measured:
[1] = Fraction of non-dissociated tris-ligand complex at 10 μM, pH 7.40 (UV-vis and speciation calculation); assay type: physicochemical; settings: pH 7.4, constants determined at 0.20 M KCl
From the text: As a first step, interaction of the tris-ligand In(III) complexes with various LMM blood serum components was investigated and compared to that of GaQ3 studied formerly in our research group. The LMM compounds are considered to be more mobile than the high molecular mass components (HMM) such as proteins, and generally their reaction is characterized by faster kinetics. The role of serum compounds might have importance on the distribution of the In(III) complexes since they may be responsible for (partial) displacement of the originally coordinated ligand and they can also form mixed-ligand complexes. […] All the measurements in this work were performed at 25 °C as most of the stability constants used for the modeling calculations published in the literature were determined at this temperature. UV–vis spectra recorded for the tris-ligand complexes at 10 μM concentration (see Fig. S1a for InQ3) in this buffer show 94%, 90% and < 20% non-dissociated InQ3, InD3 and InM3, respectively, which corresponds well to the fractions obtained using the stability constants determined at 0.20 M KCl: 90% (InQ3), 86% (InD3) and 9% InM3 and 6% InM^2+. […]
For the preparation of stock solutions and samples, Milli-Q water was used. Exact concentration of ligand stock solutions was determined via pH-potentiometric titrations (vide infra). […]

[2] = Speciation in threefold diluted human blood serum by UV-vis; assay type: in vitro ADME; settings: 10 µM complex
From the text: With this knowledge, samples prepared in blood serum were studied by UV–vis spectrometry to count the significance of HMM and LMM serum components in the speciation of the complexes (Figs. 9 and S8). Unfortunately, fluorescence spectra could not be recorded due to the significant light scattering of the samples. […] UV–vis spectra in Fig. 9 resemble the behaviour observed for the complex – HSA – Tf ternary systems (Fig. S7) with some important differences. […] This refers to the altered coordination sphere of the metal complex. […] Keeping in mind the difficulties of interpretation of UV–vis spectroscopic data obtained in complex matrices, some assumptions can be made relying on the results of binary and ternary systems. Significant Tf binding of In(III) in blood serum is likely, while GaQ3 interacts less with this protein. […] Formation of HQ – Mg(II) complex is not feasible even at physiological Mg(II) ion levels (0.7–1.0 mM) based on the available stability constants. Zn(II) ion forms higher stability complexes with HQ as Mg(II) and could compete for HQ with In(III) or Ga(III) if its total blood plasma concentration (10–28 μM) would be freely available. […]
For (apo)Tf containing samples, complex concentrations were 20 μM and 0–2.5 equiv. protein was added. Reference spectra for the complexes, ligands and protein were recorded as well. […]

SMILES | fraction of tris-ligand complex obtained using the stability constants [1] [%] | time to reach chemical equilibrium in serum [2] [h]
Cc1c([O-])c(=O)ccn1C.Cc1c([O-])c(=O)ccn1C.Cc1c([O-])c(=O)ccn1C.[In+3] [InD3] | 86 | 
[In+3].[O-]c1cccc2cccnc12.[O-]c1cccc2cccnc12.[O-]c1cccc2cccnc12 [InQ3, Tris(8-Quinolinolato)indium(III)] | 90 | 4
[Ga+3].[O-]c1cccc2cccnc12.[O-]c1cccc2cccnc12.[O-]c1cccc2cccnc12 [GaQ3, Tris(8-Quinolinolato)gallium(III), reference compound] |  | ≤ 0.167
